Experimental findings from US10927096B2, “Ester substituted ion channel blockers and methods for use” (Nocion Therapeutics, Inc., priority 2019, dated 2021) are described below.

In series [1] the target is T1, NaV1.7 (Homo sapiens, UniProt Q15858).
T1 construct: expressed in transfected cells; host or cells: HEK293, tetracycline-inducible
The series is described as follows: Whole cell patch clamp, external block of NaV1.7 current. It is filed as cell-based. Particulars: % inhibition, compound in external solution, manual whole cell patch clamp, read-out: Nav1.7 Extracellular Inhibition; for inhibition at 3 µM: test concentration 3 μM; for inhibition at 1 µM: test concentration 1 μM; for inhibition at 100 µM: test concentration 100 μM; for inhibition at 10 µM: test concentration 10 μM; for inhibition at 30 µM: test concentration 30 μM. The method, then:
(§1) NaV1.7 was expressed upon induction with tetracycline. Cells were cultured in DMEM containing 10% dialyzed Fetal Bovine Serum (VWR, Radnor, Pa.), 1% Glutamax (VWR, Radnor, Pa.), 1% Penicillin-Streptomycin (VWR, Radnor, Pa.), 100 mg/L Hygromycin (Thermo Fisher Scientific, Waltham, Mass. and 5 mg/L Blasticidin (Alfa Aesar, Haverhill, Mass.). Cells were grown and maintained at 37° C. in a humidified environment containing 10% C02 in air. Cells were detached from the culture flask for passage and harvested using 0.05% Trypsin-EDTA (Thermo Fisher Scientific, Waltham, Mass.). To induce NaV1.7, cells were induced with tetracycline (0.1-1 μg/mL, IBI Scientific, Peosta, Iowa) the day before recording and plated onto 24-well plates. Cells were washed with DPBS (VWR, Radnor, Pa.), trypsinized and then triturated five times in 10 mL of growth media to break apart cell aggregates. For one 24-well plate, 2 mL of cell suspension was mixed with 23 mL of fresh growth media and 0.1-1 μg/mL tetracycline added. 1 ml of mixed media with cells was then added to each well of a 24-well plate, with a 12 mm coverslip already placed in the bottom of the well. Cells were then incubated in 37° C. and 10% CO2 overnight.
(§2) The intracellular solution contained the following (in mM) CsCl 135, NaCl 10, EGTA 10, HEPES 10, MgCl2 2, adjusted to pH 7.2 with CsOH. The external solution was a normal Ringer solution containing (in mM) NaCl 155, HEPES 10, glucose 10, KCl 3.5, CaCl2 1.5, MgCl2 1 adjusted to pH 7.4 with NaOH. CsCl is from Alfa Aesar, Haverhill, Mass. All other chemicals are from Sigma-Aldrich, St. Louis, Mo. In order to test the degree of internal block by test compounds the compounds were dissolved in internal solution at the indicated test concentration. […] In order to test the degree of external block by test compounds the compounds were dissolved in external solution at the indicated test concentration.
(§3) 18-24 hours after cells were induced with tetracycline, coverslips were placed into a chamber filled with Normal Ringer solution at room temperature and the chamber placed on a microscope. Pipettes were pulled from borosilicate glass on a P97 puller (Sutter Instrument, Novato, Calif.) and polished with a MF-830 Microforge (Narishige International USA, Inc, Amityville, N.Y.) to have a resistance of 1.5-2.5 MΩ when filled with CsCl internal solution at room temperature. Healthy cells (those that are round and translucent with no visible blemishes) were chosen for seal formation. A seal was formed between the pipette and the cell, and a brief pulse of suction was used to “break in” and establish the whole-cell configuration. The membrane potential was held at −100 mV before the voltage protocol began. Only cells with series resistance between 1.5-5 MΩ were retained for analysis. The voltage protocol was as follows: Cells were held at −100 mV for 12 ms followed by a hyperpolarizing step to −105 mV for 12 ms to monitor the leak. Cells were then stepped back to −100 mV for 40 ms. Cells were then depolarized to −20 mV for 10 ms and then returned to −100 mV for 26 ms (The FIGURE).
Once the recording was started, the voltage protocol was run at 30 second intervals for 5 minutes to get a stable baseline. This is followed by 5 Hz stimulation of the same voltage protocol run until the end of experiment. […] The test compound is added for 5 minutes before washing out with normal Ringer's solution. Currents were recorded using PatchMaster software with Heka EPC10 (HEKA Electronics, Lambrecht, Germany). Only cells with inward current amplitudes at −20 mV between 400 pA and 4 nA were accepted. In addition, cells having leak currents greater than 10% of their current amplitudes were discarded.
(§4) The data was plotted using the Patchmaster software (HEKA Electronics, Lambrecht, Germany) and analyzed by plotting the minimum current during the voltage step to −20 mV (peak inward current) as a function of time. […]

Series [2] can be described thus: PAMPA membrane permeability assay. It is filed as physicochemical. The following applies: pH 7.4 buffer, GIT lipid, 4 hours incubation. As for the experimental part:
The PAMPA assay (pION, Inc., Woburn Mass.) was used to determine the ability of compounds of the invention to cross an artificial lipid membrane by passive diffusion. Test compounds were dissolved in DMSO (10 mM) and diluted 200-fold in buffer (pION Inc., pH 7.4) to provide 50 uM stock solutions. Buffer (150 μL) was added to a UV blank plate and stock solutions (150 μL) were transferred to a UV reference plate. The blank and reference spectrum were read using a spectrophotometer. Stock solutions (200 μL) were added to the donor plate of the PAMPA sandwich plate and an accept plate painted with GIT lipid (pION Inc, 5 μL) was placed on top. Buffer (200 μL) was added to the acceptor plate and the PAMPA sandwich plate was incubated for 4 hours. Aliquots (150 μL) from the acceptor plate were added to a UV plate and read as acceptor spectrum. Aliquots (150 μL) of the donor solutions were added to a UV analysis plate and read as donor spectrum. The permeability coefficient of test compounds was calculated using PAMPA Explorer™ software (version 3.5.0.4) based on the AUC of the reference plate, the donor plate, and the acceptor plate.
The PAMPA permeability results (10^−6 cm/s) of representative compounds are reported as “+” (<0.1 10^−6 cm/s), “++” (0.1-2.0 10^−6 cm/s), “+++” (2.0-10.010^−6 cm/s) or “++++” (>10.0 10^−6 cm/s).

Series [3] addresses T1, NaV1.7. The experiment in a line: Whole cell patch clamp, internal block of NaV1.7 current. It is filed as cell-based. Particulars: % inhibition at 1 μM test concentration, compound in internal solution, manual whole cell patch clamp. The method, then:
as §1, §2, §3
Once the recording was started, the voltage protocol was run at 30 second intervals for 5 minutes to get a stable baseline. This was followed by four 30-second periods of 5 Hz stimulation of the same voltage protocol separated by 1 minute of rest which was then followed by 0.33 Hz stimulation after the last train. Currents were recorded using PatchMaster software with Heka EPC10 (HEKA Electronics, Lambrecht, Germany). Only cells with inward current amplitudes at −20 mV between 400 pA and 4 nA were accepted. In addition, cells having leak currents greater than 10% of their current amplitudes were discarded.
as §4

T1 sequence (Q15858 whole entry): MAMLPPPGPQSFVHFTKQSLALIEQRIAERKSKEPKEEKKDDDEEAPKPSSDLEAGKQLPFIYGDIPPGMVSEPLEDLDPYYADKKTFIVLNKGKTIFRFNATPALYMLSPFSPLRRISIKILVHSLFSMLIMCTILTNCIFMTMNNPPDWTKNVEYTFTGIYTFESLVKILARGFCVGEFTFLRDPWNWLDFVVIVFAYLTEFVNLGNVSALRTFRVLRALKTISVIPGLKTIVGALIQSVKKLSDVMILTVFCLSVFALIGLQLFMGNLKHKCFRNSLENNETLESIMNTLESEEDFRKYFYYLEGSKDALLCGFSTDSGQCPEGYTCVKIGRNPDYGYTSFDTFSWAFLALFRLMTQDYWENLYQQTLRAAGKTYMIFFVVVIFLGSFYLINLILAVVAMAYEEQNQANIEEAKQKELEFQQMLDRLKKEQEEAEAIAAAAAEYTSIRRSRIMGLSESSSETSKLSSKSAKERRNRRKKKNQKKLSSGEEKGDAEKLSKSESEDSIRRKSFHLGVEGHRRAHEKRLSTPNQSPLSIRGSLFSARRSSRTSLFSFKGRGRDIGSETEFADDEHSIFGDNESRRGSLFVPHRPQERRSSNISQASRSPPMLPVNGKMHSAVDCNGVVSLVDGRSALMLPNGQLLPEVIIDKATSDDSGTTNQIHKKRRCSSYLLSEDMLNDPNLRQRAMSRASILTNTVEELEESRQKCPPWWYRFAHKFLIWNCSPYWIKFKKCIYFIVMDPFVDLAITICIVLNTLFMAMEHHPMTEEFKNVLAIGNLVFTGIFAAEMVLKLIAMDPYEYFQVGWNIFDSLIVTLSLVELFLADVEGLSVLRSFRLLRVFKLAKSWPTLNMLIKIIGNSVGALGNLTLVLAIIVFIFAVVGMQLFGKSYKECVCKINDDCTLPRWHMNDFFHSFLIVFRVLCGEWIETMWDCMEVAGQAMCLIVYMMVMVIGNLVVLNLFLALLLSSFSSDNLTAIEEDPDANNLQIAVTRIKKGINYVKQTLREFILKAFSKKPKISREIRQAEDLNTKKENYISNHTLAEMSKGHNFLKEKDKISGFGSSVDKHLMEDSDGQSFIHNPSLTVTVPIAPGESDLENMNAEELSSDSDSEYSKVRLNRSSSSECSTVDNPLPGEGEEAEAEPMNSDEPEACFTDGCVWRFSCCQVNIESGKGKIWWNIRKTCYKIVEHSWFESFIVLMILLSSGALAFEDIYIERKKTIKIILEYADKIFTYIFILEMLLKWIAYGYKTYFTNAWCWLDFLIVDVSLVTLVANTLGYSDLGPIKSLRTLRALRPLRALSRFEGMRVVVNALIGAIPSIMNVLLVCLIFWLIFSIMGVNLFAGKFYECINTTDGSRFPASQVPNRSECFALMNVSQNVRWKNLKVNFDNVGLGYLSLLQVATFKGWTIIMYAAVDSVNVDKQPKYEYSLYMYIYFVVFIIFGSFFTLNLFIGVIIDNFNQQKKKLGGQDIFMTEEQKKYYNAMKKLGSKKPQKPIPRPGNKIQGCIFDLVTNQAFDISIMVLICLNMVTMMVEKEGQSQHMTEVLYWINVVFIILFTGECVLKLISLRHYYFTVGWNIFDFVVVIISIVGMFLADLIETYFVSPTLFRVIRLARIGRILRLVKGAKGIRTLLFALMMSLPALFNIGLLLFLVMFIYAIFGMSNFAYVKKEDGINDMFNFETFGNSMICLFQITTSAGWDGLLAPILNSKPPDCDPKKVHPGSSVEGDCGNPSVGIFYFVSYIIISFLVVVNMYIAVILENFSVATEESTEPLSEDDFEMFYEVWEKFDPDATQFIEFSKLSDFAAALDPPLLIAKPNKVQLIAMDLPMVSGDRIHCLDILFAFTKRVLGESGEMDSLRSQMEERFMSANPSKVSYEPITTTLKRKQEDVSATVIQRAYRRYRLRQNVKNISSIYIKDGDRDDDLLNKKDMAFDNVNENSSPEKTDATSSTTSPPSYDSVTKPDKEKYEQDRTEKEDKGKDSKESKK

As to `COC(=O)c1cccc(C)c1NC(=O)C[N+]1(Cc2ccccc2)CCCCCC1` [Compound 1A, 1-benzyl-1-(2-((2-(methoxycarbonyl)-6-methylphenyl)amino)-2-oxoethyl)azepan-1-ium Bromide], the inhibition at 3 µM on NaV1.7 [1] is less than 40%.

In the case of `CCOC(=O)c1cccc(C)c1NC(=O)C[N+]1(Cc2ccccc2)CCCCCC1` [Compound 2A], at NaV1.7 [1], the inhibition at 1 µM is less than 40%.

Regarding `COC(=O)c1cccc(C)c1NC(=O)C[N+]1(Cc2ccccc2)CCCCC1` [Compound 3A], the inhibition at 100 µM on NaV1.7 [1] was 40 to 70%.

As to `CCOC(=O)c1cccc(C)c1NC(=O)C[N+]1(Cc2ccccc2)CCCCC1` [Compound 4A], the inhibition at 3 µM on NaV1.7 [1] is less than 40%.

As for `CCOC(=O)c1cccc(C)c1NC(=O)C[N+]1(Cc2ccccc2)CCCC1` [Compound 9A], the inhibition at 10 µM at NaV1.7 [1] is less than 40%.

Take `CCOC(=O)c1cccc(C)c1NC(=O)C[N+]1(Cc2ccccc2)CCCCCCC1` [Compound 10A]: the inhibition at 1 µM at NaV1.7 [1] fell in the range of 40 to 70%.

In the case of `CCOC(=O)C1CCC[N+](CC(=O)Nc2c(C)cccc2C(=O)OC)(Cc2ccccc2)C1` (stereo not shown) [Compound 16A], at NaV1.7 [1], the inhibition at 30 µM fell in the range of 40 to 70%.

Regarding `CCN(CC)C(=O)C1CCC[N+](CC(=O)Nc2c(C)cccc2C(=O)OC)(Cc2ccccc2)C1.O=C([O-])C(F)(F)F` (stereo not shown) [Compound 38], in series [2], the “PAMPA (10^−6 cm/s)” value is on record as “+ (<0.1 10^−6 cm/s)”. Further, the “NaV1.7 Intracellular Inhibition” value on NaV1.7 [3] is recorded as “++ (70-30%)”.

As to `CCCN(CCC)C(=O)C1CCC[N+](CC(=O)Nc2c(C)cccc2C(=O)OC)(Cc2ccccc2)C1.[Br-]` (stereo not shown) [Compound 39], in series [2], the “PAMPA (10^−6 cm/s)” value is reported as “+ (<0.1 10^−6 cm/s)”. For the same compound, at NaV1.7 [3], the “NaV1.7 Intracellular Inhibition” value is on record as “+ (<30%)”.

For the compound `CC[N+]1(CC(=O)Nc2c(C)cccc2C(=O)OC)CCCC(C(=O)N(C)C)C1.[I-]` (stereo not shown) [Compound 44], in series [2], the “PAMPA (10^−6 cm/s)” value is given as “+ (<0.1 10^−6 cm/s)”. Also, the “NaV1.7 Intracellular Inhibition” value on NaV1.7 [3] is “+ (<30%)”.

On to `CCNC(=O)C1CCC[N+](CC)(CC(=O)Nc2c(C)cccc2C(=O)OC)C1.O=C[O-]` (stereo not shown) [Compound 49], for which, in series [2], the “PAMPA (10^−6 cm/s)” value was “+ (<0.1 10^−6 cm/s)”. Further, on NaV1.7 [3], the “NaV1.7 Intracellular Inhibition” value is “+ (<30%)”.

`CNC(=O)C[N+]1(CC(=O)Nc2c(C)cccc2C(=O)OC)CCCC(c2ccccc2)C1` (stereo not shown) [Compound 59A, 1-(2-((2-(methoxycarbonyl)-6-methylphenyl)amino)-2-oxoethyl)-1-(2-(methylamino)-2-oxoethyl)-3-phenylpiperidin-1-ium Bromide]: the inhibition at 10 µM at NaV1.7 [1] was less than 40%.

For `COC(=O)c1cccc(C)c1NC(=O)C[N+]1(CC(N)=O)CCCC(c2ccccc2)C1` (stereo not shown) [Compound 61A], the inhibition at 100 µM at NaV1.7 [1] lay within 40 to 70%.

As for `CC[N+]1(CC(=O)Nc2c(C)cccc2C(=O)OC)CCCC(c2ccccc2)C1` (stereo not shown) [Compound 65A], on NaV1.7 [1], the inhibition at 10 µM is 40 to 70%.

`COC(=O)c1cccc(C)c1NC(=O)C[n+]1cccc(-c2ccccc2)c1` [Compound 66A, 1-(2-((2-(methoxycarbonyl)-6-methylphenyl)amino)-2-oxoethyl)-3-phenylpyridin-1-ium Bromide]: the inhibition at 30 µM at NaV1.7 [1] was in the range of 40 to 70%.

`CCOC(=O)c1cccc(C)c1NC(=O)C[n+]1cccc(-c2ccccc2)c1` [Compound 67A]: the inhibition at 10 µM on NaV1.7 [1] is less than 40%.

As for `CCOC(=O)c1cccc(C)c1NC(=O)C[n+]1cccn1C1CCCCC1.[Br-]` [Compound 70], the “PAMPA (10^−6 cm/s)” value in series [2] is “+ (<0.1 10^−6 cm/s)”. Besides, at NaV1.7 [3], the “NaV1.7 Intracellular Inhibition” value is on record as “++ (70-30%)”.
